From ChEMBL document CHEMBL3301470, “MMV Malaria Box screening against Plasmodium falciparum Deoxyhypusine hydroxylase” (2015)

The compounds below were run against T1, Deoxyhypusine hydroxylase (Plasmodium falciparum (isolate 3D7)) (UniProt Q8I701) (assay: MMV: Deoxyhypusine hydroxylase activity assay.). Details: concentration not given here.
T1 sequence (whole entry): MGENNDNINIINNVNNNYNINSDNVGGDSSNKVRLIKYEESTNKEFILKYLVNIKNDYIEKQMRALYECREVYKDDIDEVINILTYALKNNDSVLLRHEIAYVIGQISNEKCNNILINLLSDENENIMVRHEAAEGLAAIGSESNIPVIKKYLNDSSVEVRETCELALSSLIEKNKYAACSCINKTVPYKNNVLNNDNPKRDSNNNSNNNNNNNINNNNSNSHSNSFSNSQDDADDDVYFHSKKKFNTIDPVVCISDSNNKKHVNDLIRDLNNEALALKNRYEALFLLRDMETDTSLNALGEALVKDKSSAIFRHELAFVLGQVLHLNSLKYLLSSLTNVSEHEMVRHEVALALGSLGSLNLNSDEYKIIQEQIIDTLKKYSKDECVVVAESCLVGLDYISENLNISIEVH
`COc1ccc(-c2nc3cc(Cc4ccc5[nH]c(-c6ccc(OC)cc6)nc5c4)ccc3[nH]2)cc1` gave an inhibition of 38.8%.
For `c1ccc(Cn2c(N=Nc3c(Nc4ccccc4)ccc4ccccc34)nc3ccccc32)cc1`, the inhibition was 35.9%.
For `CCOc1ccc(-c2nonc2NC(=O)c2cccc(C)c2)cc1OCC`, the inhibition was 43.3%.
